In US20260248744A1, “USE OF NON-TOXIC POLYAMINE ANALOGUES AND/OR INHIBITORS OF POLYAMINE BIOSYNTHESIS TO RE-BALANCE NATURAL POLYAMINE LEVELS IN SNYDER-ROBINSON SYNDROME AND RELATED DISORDERS” (The Johns Hopkins University, priority 2022, published 2026):

Key:
WT male C57Bl/6J mice = assay: Long-term in vivo exposure to low-dose (R,R)-1,12-Me2Spm in mice; settings: WT male C57Bl/6J mice (FIG. 2)
Description: Without wishing to be bound to any one particular theory, it is thought that inhibiting polyamine biosynthesis will enhance uptake of 1,12-Me2Spm and/or reduce the dose necessary for spermidine reduction.

SRS fibroblast lines = assay: Proliferation of SRS fibroblast lines cotreated with DFMO and Me2Spm; format: cell-based; settings: cotreated with DFMO and Me2Spm for 96 h (FIG. 4C)
Description: (FIG. 4B) DFMO cooperates with Me2Spm in improving SPD/SPM ratio, indicated by numbers above columns. […] In FIG. 4A and FIG. 4B, SRS patient-derived lymphoblastoid cells were pretreated with DFMO followed by 96-h cotreatment with DFMO and Me2Spm. SRS fibroblast lines in FIG. 4C were cotreated with DFMO and Me2Spm for 96 h;

[1] = shown previously (Murray Stewart et al., 2020); cited from earlier work
[2] = biological target: T1, spermidine synthase (SRM) (Homo sapiens, UniProt P19623); assay: Inhibition of spermidine synthase
T1 sequence (P19623 1-302): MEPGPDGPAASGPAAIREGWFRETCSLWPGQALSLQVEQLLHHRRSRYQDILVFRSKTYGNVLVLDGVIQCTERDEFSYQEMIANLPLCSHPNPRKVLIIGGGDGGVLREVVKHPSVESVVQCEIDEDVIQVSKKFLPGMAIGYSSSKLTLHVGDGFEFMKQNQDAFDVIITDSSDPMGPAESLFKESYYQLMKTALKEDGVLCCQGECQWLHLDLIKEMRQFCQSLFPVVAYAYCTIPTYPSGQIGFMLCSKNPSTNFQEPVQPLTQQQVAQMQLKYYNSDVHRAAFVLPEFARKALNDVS

SRS cells = assay: Treatment of SRS cells with AdoDATO (polyamine levels); format: cell-based; settings: SRS cells (FIG. 6)
[3] = tested on: SRS patient-derived cell lines; assay: Response of SRS patient-derived cell lines to DFMO (conversion of SPD to SPM); format: cell-based
[4] = tested on: SRS patient-derived lymphoblastoid cells; assay: Polyamine levels in SRS patient-derived lymphoblastoid cells treated with DFMO and Me2Spm; format: cell-based; settings: DFMO pretreatment followed by 96-h cotreatment (FIG. 4A)
SAMDC = SAMDC activity in SRS cells treated with DFMO; format: cell-based; settings: FIG. 5C
Description: (§1) FIG. 5A, FIG. 5B, FIG. 5C, FIG. 5D, and FIG. 5E show potential therapeutic targets and molecules in the response of SRS cells to DFMO.

children = settings: Phase 2 preventative trials in pediatric neuroblastoma; ODC1/Bachmann-Bupp trials; cited from earlier work
[5] = tested on: SRS cells with a complete loss-of-function mutation in SMS; assay: Response to DFMO of SRS cells with complete loss-of-function mutation in SMS; format: cell-based; settings: response to DFMO (FIG. 5E)
Description: as §1

Compound: C[C@@H](N)CCNCCCCNCC[C@@H](C)N [(R,R)-1,12-dimethylspermine]
- SPD/SPM ratio (WT male C57Bl/6J mice): improves the SPD/SPM ratio
- toxicity of long-term in vivo exposure (WT male C57Bl/6J mice): nontoxic
- rescue of DFMO-mediated growth inhibition (SRS fibroblast lines): rescues DFMO-mediated growth inhibition
- metabolic stability [1]: metabolically stable

Compound: NCCCCC[S+](CCN)CC1OC(n2cnc3c(N)ncnc32)C(O)C1O (stereo not drawn) [AdoDATO, S-adenosyl-1,8-diamino-3-thio-octane]
- inhibition of spermidine synthase (SRM) [2]: inhibits spermidine synthase (SRM)
- SPD/SPM ratio (SRS cells): improves the SPD/SPM ratio
- levels of putrescine (SRS cells): maintaining levels of putrescine

Compound: N=C(N)c1cccc2c1CC/C2=N\N=C(N)N [CGP48664]
- conversion to SPM on cotreatment with DFMO ([3]; cotreatment of DFMO with SAMDC inhibitor (FIG. 5D)): prevents the conversion to SPM

Compound: difluoromethylornithine [DFMO]
- uptake of Me2Spm [4]: increases uptake of Me2Spm
- SAMDC activity (SAMDC): induces SAMDC activity
- safety in children (children): safe in children
- conversion of SPD to SPM [5]: do not convert SPD to SPM
- SPD/SPM ratio ([3]; SRS patient-derived cell lines (FIG. 5B)): correction of the SPD/SPM ratio
- conversion of SPD to SPM ([3]; hypomorphic SRS cells (FIG. 5A)): enhances conversion of SPD to SPM
- levels of putrescine (SRS cells): depletes
